We go through seven molecules from paper PMC7697888, “Comprehensive Set of Tertiary Complex Structures and Palmitic Acid Binding Provide Molecular Insights into Ligand Design for RXR Isoforms” (International Journal of Molecular Sciences, 2020).

For one test, the system named is all RXR subtypes. Also noted: method as in PMID 9205071, PMID 26030625, PMID 27151148. The conditions noted are these: read-out: EC50 activating all RXR subtypes; cited from earlier work.
The next test has as its system RXR. Nature of the test: Gal4 hybrid reporter gene assays, competition with bexarotene / antagonist UVI3003 (isoform not specified). Particulars: UVI3003 at 1 µM; MA, PA and SA at 200 µM. The test is classed as cell-based, human. As to the method:
The Gal4 hybrid reporter gene assays for RXRα, RXRβ and RXRγ were performed as described previously using the Gal4-fusion receptor plasmids pFA-CMV-hRXRα-LBD (NR2B1, UniProt entry: P19793, aa 225–462), pFA-CMV-hRXRβ-LBD (NR2B2, UniProt entry: P28702-1, aa 294–533) and pFA-CMV-hRXRγ-LBD (NR2B3, UniProt entry: P48443-1, aa 229–463), which code for the hinge region and LBD of the canonical RXR isoform. pFR-Luc (Stratagene, San Diego, CA, USA) as the reporter plasmid and pRL-SV40 (Promega, Madison, WI, USA) as the internal control were used. HEK293T cells were grown in DMEM high-glucose medium (supplemented with 10% fetal calf serum (FCS), sodium pyruvate (1 mM), penicillin (100 U/mL) and streptomycin (100 μg/mL)) at 37 °C and 5% CO2, and seeded in 96-well plates (3.0 × 10^4 cells/well) on the day before transfection. Right before transfection, medium was changed to Opti-MEM without supplements and cells were transiently transfected using the Lipofectamine LTX reagent (Invitrogen, Carlsbad, CA, USA) according to the manufacturer’s protocol with pFR-Luc (Stratagene), pRL-SV40 (Promega) and the respective pFA-CMV-hRXR-LBD clone. After 5 h of incubation, medium was changed to Opti-MEM (supplemented with penicillin (100 U/mL) and streptomycin (100 μg/mL)) additionally containing 0.1% DMSO and the respective test compounds or 0.1% DMSO alone as the untreated control. After overnight incubation (12–14 h), cells were assayed for luciferase activity using the Dual-Glo luciferase assay system (Promega) according to the manufacturer’s protocol on a Tecan Spark M10 luminometer (Tecan Deutschland GmbH, Crailsheim, Germany). Each sample was tested in at least three biologically independent repeats in duplicates. Data were normalized for transfection efficiency and cell growth by division of firefly luciferase data by Renilla luciferase data and multiplying by 1000 to obtain relative light units (RLUs). Fold activation denotes the mean RLU of test compounds at a respective concentration divided by the mean RLU of untreated control. […]
In general terms: Reporter assays use an easily measured gene product as a stand-in for the process of interest.

The test system of the next test is RXRα. Also noted: method as in PMID 15073272. The conditions noted are these: cited from earlier work.
Test [1] has as its target T1, sGFP-RXRα LBD (aa 225–462) (human, UniProt P19793 225-462).
T1 construct: also called recombinant RXRα LBD fused to N-terminal superfolder green fluorescent protein; source: recombinant; not shown: superfolder green fluorescent protein (sGFP), N-terminal, kept
T1 sequence (looked up): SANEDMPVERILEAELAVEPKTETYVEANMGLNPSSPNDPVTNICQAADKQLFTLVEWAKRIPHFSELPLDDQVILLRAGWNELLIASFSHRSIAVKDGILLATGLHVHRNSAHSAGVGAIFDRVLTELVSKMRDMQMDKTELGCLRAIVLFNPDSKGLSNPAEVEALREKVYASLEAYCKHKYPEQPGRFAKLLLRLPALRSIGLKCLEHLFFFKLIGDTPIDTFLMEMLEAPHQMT
Nature of the test: AlphaScreen or HTRF; 12 nM sGFP-RXRα LBD (acceptor), 12 nM biotin-SRC-1 peptide on terbium cryptate-streptavidin (donor); 25 mM HEPES pH 7.5, 150 mM KF, 5% glycerol, 0.1% CHAPS, 5 mM DTT, 1% DMSO; 2 h at room temperature; with myristic, palmitic or stearic acid at varying concentrations, with or without 0.3 µM bexarotene; SR11237 as positive control. Particulars: both partners purified. In general terms: Bead proximity is the source of the signal in Alpha formats.

Test [2] has as its target T2, RXRγ ligand-binding domain (NR2B3, aa 233–463) (human, UniProt P48443 233-463).
T2 construct: Cloned in pNIC28-Bsa4; Crystallised with exogenously added palmitic acid; also called RXRγ LBD; not shown: histidine tag, N-terminal, cleaved
T2 sequence (looked up): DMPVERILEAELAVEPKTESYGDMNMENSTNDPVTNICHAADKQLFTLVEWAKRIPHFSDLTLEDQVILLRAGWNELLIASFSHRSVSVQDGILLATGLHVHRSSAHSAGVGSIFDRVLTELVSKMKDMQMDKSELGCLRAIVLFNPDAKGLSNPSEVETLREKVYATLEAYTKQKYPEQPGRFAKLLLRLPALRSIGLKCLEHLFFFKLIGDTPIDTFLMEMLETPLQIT
Nature of the test: crystal structure; sitting drop vapor diffusion at 20 °C; RXR LBD (10–13 mg/mL) with GRIP-1 peptide and palmitic acid (carried over from E. coli for RXRα, exogenously added for RXRβ and RXRγ). Particulars: both partners purified.

Test [3] deals with T3, RXRβ ligand-binding domain (NR2B2, aa 298–533) (human, UniProt P28702 298-533).
T3 construct: Cloned in pNIC28-Bsa4; Crystallised with exogenously added palmitic acid; also called RXRβ LBD; not shown: histidine tag, N-terminal, cleaved
T3 sequence (looked up): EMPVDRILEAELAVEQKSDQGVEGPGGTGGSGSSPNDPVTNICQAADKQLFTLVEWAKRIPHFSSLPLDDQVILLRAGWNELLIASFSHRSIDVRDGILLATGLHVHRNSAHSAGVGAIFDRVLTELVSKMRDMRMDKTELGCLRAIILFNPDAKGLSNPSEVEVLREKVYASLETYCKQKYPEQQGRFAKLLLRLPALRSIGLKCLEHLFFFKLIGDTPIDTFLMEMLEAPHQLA
The description is as above. Particulars: both partners purified.

Test [4] concerns the target T4, RXRα ligand-binding domain (NR2B1, aa 223–462) (human, UniProt P19793 223-462).
T4 construct: Cloned in pNIC28-Bsa4; Palmitic acid carried over from E. coli sat in the ligand pocket in the crystal; also called RXRα LBD; retinoid X receptor α; not shown: histidine tag, N-terminal, cleaved
T4 sequence (looked up): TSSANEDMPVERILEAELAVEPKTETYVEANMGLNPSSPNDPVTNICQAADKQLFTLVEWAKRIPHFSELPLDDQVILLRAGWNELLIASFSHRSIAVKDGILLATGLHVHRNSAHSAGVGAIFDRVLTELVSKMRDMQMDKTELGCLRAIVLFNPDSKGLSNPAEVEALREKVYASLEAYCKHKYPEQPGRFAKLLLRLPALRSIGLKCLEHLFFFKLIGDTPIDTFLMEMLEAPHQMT
Described as above. The conditions noted are these: both partners purified.

For orientation: EC50 means the midpoint of the concentration-response curve.

No end group written: not given here. *: point of attachment. Biotin = O=C1N[C@H]2[C@H](CS[C@H]2CCCCC(=O)*)N1

For `CC1=C(/C=C/C(C)=C\C=C\C(C)CC(=O)O)C(C)(C)CCC1` (stereo not drawn) [9-cis-13,14-dihydroretinoic acid], the EC50 in the test with all RXR subtypes is ~0.1 µM.

Take `CCCCCOc1cc2c(cc1-c1cc(/C=C/C(=O)O)ccc1O)C(C)(C)CCC2(C)C` [UVI3003, reference compound]: the “reversal of RXR agonistic effect of MA, PA and SA” value in the test with RXR is recorded as “fully reversed”.

Consider `CCCCC/C=C\C/C=C\C/C=C\C/C=C\CCCC(=O)O` [arachidonic acid], for which the EC50 in the test with RXRα is ~10 µM.

On to `CC1=C(/C=C/C(C)=C\C=C\C(C)=C\C(=O)O)C(C)(C)CCC1` [9-cis-retinoic acid], for which the EC50 in the test on all RXR subtypes is ~0.1 µM.

As for `CC/C=C\C/C=C\C/C=C\C/C=C\C/C=C\C/C=C\CCC(=O)O` [docosahexaenoic acid], the EC50 with RXRα is ~10 µM.

B1: SRC-1-derived peptide (steroid receptor co-activator 1) (peptide)
peptide: Biotin-CPSSHSSLTERHKILHRLLQEGSPS
notes: NCOA1), contains the consensus motif LxxLL; Coupled through its biotin to terbium cryptate-streptavidin conjugate (FRET donor); source: bought: Eurogentec Deutschland GmbH; not shown: biotin, N-terminal, kept
For B1, the binding result in test [1] is reported as “binds”.

B2: glucocorticoid receptor interacting protein 1 (GRIP-1) co-regulator peptide (peptide)
peptide: KHKILHRLLQDSSY
notes: NCOA2/TIF2) with an LxxLL box; last printed residue of the peptide; also called GRIP-1 peptide
As for B2, the binding result in test [2], in test [3] and in test [4] was “binds” throughout.
